Data taken from US9115159B2, “Phosphate compounds, a process for their preparation and pharmaceutical compositions containing them” (LES LABORATOIRES SERVIER, priority 2013, dated 2015).
Values joined by “and” are separate entries in the source; they are usually repeats but may differ in a detail not shown here. Equal entries are not always repeated.

Tests used:
[1] = Pharmacokinetic profile / in vivo conversion after oral administration to SCID mice (plasma, LC-MS/MS); parameters: species or system female SCID mice
Description: The pharmacokinetic profile of the phosphate compounds of formula (I) is evaluated in a lipid formulation and in aqueous solution in female SCID mice. This is compared to the pharmacokinetic profile of compounds of formula (I′) in a lipid formulation. More specifically, 4-[{[3-(6-{[(3S)-3-(morpholin-4-ylmethyl)-3,4-dihydroisoquinolin-2(1H)-yl]-carbonyl}-1,3-benzodioxol-5-yl)-5,6,7,8-tetrahydroindolizin-1-yl]carbonyl}(phenyl)-amino]phenyl disodium phosphate (also referred to as the compound of Example 1) was tested and compared to N-(4-hydroxyphenyl)-3-{6-[((3S)-3-(4-morpholinylmethyl)-3,4-dihydro-2(1H)-isoquinolinyl)carbonyl]-1,3-benzodioxol-5-yl}-N-phenyl-5,6,7,8-tetrahydro-1-indolizine carboxamide (also referred to as the drug from Example 1).
The compound of Example 1 is prepared in a mixture of anhydrous ethanol/polyethylene glycol 300/water (10/40/50, v/v/v) intended for administration by the p.o. route. The study is carried out in 2 groups of SCID mice to which the compound of Example 1 is administered under the following conditions: • Group 1: 3 mg/kg p.o. (gavage, 10 mL/kg), • Group 2: 25 mg/kg p.o. (gavage, 10 mL/kg).
Blood samples are taken at the following points in time (3 samples per animal and 3 animals for each point in time): 0.25 hr, 0.5 hr, 1 hr, 2 hrs, 6 hrs and 24 hrs after oral administration.
The compound of Example 1 is also administered by the oral route in an aqueous medium to SCID mice, under the following conditions: • Group 1: 30 mg/kg p.o. dissolved in 1 mM sodium carbonate solution (gavage, 10 mL/kg), • Group 2: 100 mg/kg p.o. in water (gavage, 10 mL/kg).
Blood samples are taken at the following points in time (3 animals for each point in time and 1 sample per animal): 0.25 hr, 0.5 hr, 1 hr, 2 hrs, 4 hrs, 6 hrs and 24 hrs after oral administration.
For all formulations of the compound of Example 1, the blood thereby collected is centrifuged and the plasma is transferred to tubes containing 1M hydrochloric acid. The plasma concentrations of the phosphate compound (prodrug) and its hydroxylated homologue (drug) are determined simultaneously using a method of liquid chromatography coupled with mass spectrometric detection (TFC-LC-MS/MS). The limit of detection for both entities is 0.5 ng/mL.
The drug from Example 1 is prepared in a mixture of anhydrous ethanol/polyethylene glycol 300/water (10/40/50, v/v/v) intended for administration by the p.o. route. The study is carried out in several groups of SCID mice to which the drug from Example 1 is administered under the following conditions: • Group 1: 3 mg/kg p.o. (gavage, 10 mL/kg), • Group 2: 30 mg/kg p.o. (gavage, 10 mL/kg), • Group 3: 25 mg/kg p.o. (gavage, 10 mL/kg), • Group 4: 100 mg/kg p.o. (gavage, 10 mL/kg).
Blood samples are taken at the following points in time (3 animals for each point in time and 3 samples per animal for Groups 1-2 and 1 sample per animal for Groups 3 and 4): • p.o.: before administration and then 0.25 hr, 0.5 hr, 0.75 hr, 1 hr, 2 hrs, 4 hrs, 6 hrs, 8 hrs, 16 hrs and 24 hrs after oral administration at 3 and 30 mg/kg, • p.o.: 0.5 hr, 2 hrs, 6 hrs, 16 hrs and 24 hrs after oral administration at 25 mg/kg and 0.5 hr, 1 hr, 2 hrs, 6 hrs, 16 hrs, 30 hrs and 48 hrs after oral administration at 100 mg/kg.
The plasma from the blood samples collected after administration of the lipid formulations of the drug from the compound of Example 1 are analysed by liquid chromatography coupled with mass spectrometric detection. The limit of quantification of the drug from the compound of Example 1 is less than or equal to 0.5 ng/mL.
Non-compartmental pharmacokinetic analysis is carried out on the mean values of the plasma concentrations of the compounds tested. […]

[2] = Solubility in aqueous medium buffered to physiological pH (phosphate 0.33M, pH 7.4); type: physicochemical; details: phosphate 0.33M, pH = 7.4
Description: (§1) The solubilities of the compounds were also measured in a medium buffered to physiological pH (cf. Table 3).

[3] = test system: cleaved (activated) form of caspase 3; test: Quantification of the cleaved form of caspase 3 in vivo (MSD ELISA, RS4;11 xenograft tumour lysates); parameters: species or system mice (SCID strain); details: sampling time 2 hours, treated versus control mice
Description: The ability of the compounds of formula (I′) to activate caspase 3 is evaluated in a xenograft model of RS4;11 leukaemia cells.
1×10^7 RS4;11 cells are grafted sub-cutaneously into immunosuppressed mice (SCID strain). 25 to 30 days after the graft, the animals are treated orally with the various compounds. After treatment, the tumour masses are recovered and lysed, and the cleaved (activated) form of caspase 3 is quantified in the tumour lysates.
The quantification is carried out using the “Meso Scale Discovery (MSD) ELISA platform” test, which specifically assays the cleaved form of caspase 3. It is expressed in the form of an activation factor corresponding to the ratio between the quantity of cleaved caspase 3 in the treated mice divided by the quantity of cleaved caspase 3 in the control mice.
The ability of the compounds of formula (I) to activate caspase 3 is evaluated in a xenograft model of RS4;11 leukaemia cells in accordance with the protocol given in Example A2.

human Caco-2 cells = test: In vitro test on human Caco-2 cells, cellular transport A to B; type: in vitro ADME; details: prodrug incubated, 120 minutes; for Yield (experiment yield), the drug after incubation of the prodrug / Fabs (predicted absorbed fraction in humans), the drug after incubation of the prodrug: corresponding drug measured; for Fabs (predicted absorbed fraction in humans), the drug after incubation of the prodrug: 1 or 3 μM; for Yield (experiment yield), compound measured: the prodrug itself: total amount found at the end versus incubated
Description: The cellular transport from A to B (Apical to Basolateral) of the phosphate compounds of formula (I) and the compounds of formula (I′) (corresponding drugs) is studied in human Caco-2 cells. Each compound is deposited apically at 1 or 3 μM (in duplicate) and then incubated for 120 minutes.
Several samples are taken during the experiment; • apically: immediately after deposition (t=0) and at 120 minutes • basolaterally: at the end of the experiment (120 minutes)
The concentrations of the phosphate compound (prodrug) and/or of its hydroxylated homologue (drug) are determined by liquid chromatography coupled with mass spectrometric detection (LC-MS/MS). The limit of quantification for both entities is 2 ng/mL.
The apparent permeability (Papp) and the predicted absorbed fraction (Fabs) in humans are calculated for the prodrug, for the drug after incubation of the prodrug and for the drug after incubation of the drug (Hubatsch et al, Nat Protoc. 2007; 2(9), 2111-2119).
The experiment yield, which corresponds to the ratio (in percent) of the total amount of compound found at the end of the experiment versus that incubated, is also calculated.

Solubility in water = type: physicochemical
Description: The solubility of compounds of formula (I) in water was measured and compared with that of compounds of formula (I′).
More specifically, 4-[{[3-(6-{[(3S)-3-(morpholin-4-ylmethyl)-3,4-dihydroisoquinolin-2(1H)-yl]carbonyl}-1,3-benzodioxol-5-yl)-5,6,7,8-tetrahydroindolizin-1-yl]carbonyl}-(phenyl)amino]phenyl disodium phosphate (also referred to as the compound of Example 1) was tested and compared to N-(4-hydroxyphenyl)-3-{6-[((3S)-3-(4-morpholinylmethyl)-3,4-dihydro-2(1H)-isoquinolinyl)carbonyl]-1,3-benzodioxol-5-yl}-N-phenyl-5,6,7,8-tetrahydro-1-indolizine carboxamide (also referred to as the drug from Example 1).
as §1

[4] = Example 1 administered 3 mg/kg p.o., lipid formulation
[5] = Example 1 administered 25 mg/kg p.o., lipid formulation
[6] = Example 1 administered 30 mg/kg p.o., aqueous formulation (1 mM sodium carbonate solution)
[7] = Example 1 administered 100 mg/kg p.o., aqueous formulation (in water)

O=C(c1cc(-c2cc3c(cc2C(=O)N2Cc4ccccc4C[C@H]2CN2CCOCC2)OCO3)n2c1CCCC2)N(c1ccccc1)c1ccc(OP(=O)([O-])[O-])cc1.[Na+].[Na+] [Example 1, 4-[{[3-(6-{[(3S)-3-(Morpholin-4-ylmethyl)-3,4-dihydroisoquinolin-2(1H)-yl]carbonyl}-1,3-benzodioxol-5-yl)-5,6,7,8-tetrahydroindolizin-1-yl]carbonyl}(phenyl)amino]phenyl disodium phosphate]
AUCt, compound measured: Example 1 [1, 4]: AUCt (ng · h/mL) = 5 | Tmax, compound measured: Example 1 [1, 4]: Tmax (h) = 0.25 | Cmax, compound measured: Example 1 ([1]; Example 1 administered 3 mg/kg p.o., lipid formulation (ethanol/PEG 300/water 10/40/50)): Cmax (ng/mL) = 16 | AUCt, compound measured: Example 1 [1, 5]: AUCt (ng · h/mL) = 92 | Cmax, compound measured: Example 1 [1, 5]: Cmax (ng/mL) = 244 | Tmax, compound measured: Example 1 [1, 5]: Tmax (h) = 0.25 | AUCt, compound measured: Example 1 [1, 6]: AUCt (ng · h/mL) = 879 | Cmax, compound measured: Example 1 [1, 6]: Cmax (ng/mL) = 391 | Tmax, compound measured: Example 1 [1, 6]: Tmax (h) = 1.0 | AUCt, compound measured: Example 1 [1, 7]: AUCt (ng · h/mL) = 797 | Cmax, compound measured: Example 1 [1, 7]: Cmax (ng/mL) = 359 | Tmax, compound measured: Example 1 [1, 7]: Tmax (h) = 2.0 | Solubility at 10 μM ([2]; 10 μM): Soluble | Solubility at 20 μM ([2]; 20 μM): Soluble | Solubility at 50 μM ([2]; 50 μM): Soluble | Solubility at 100 μM ([2]; 100 μM): Soluble | Activation factor +/− S.E.M. ([3]; Table 2, 50 mg/kg oral): 21.2 +/− 1.3 | Yield (experiment yield), the drug after incubation of the prodrug (human Caco-2 cells): Yield (%) = 42 | Fabs (predicted absorbed fraction in humans), the drug after incubation of the prodrug (human Caco-2 cells; A to B): Fabs (%) = 71 | Papp, compound measured: the prodrug itself (human Caco-2 cells; A to B, deposited apically at 1 or 3 μM): Papp (10^−6 cm/s) = 0.01 | Yield (experiment yield), compound measured: the prodrug itself (human Caco-2 cells): Yield (%) = 0 | solubility in water (Solubility in water): greater than or equal to 10 mg/mL and ≥ 12.6 mM

Cc1c(C(=O)N(c2ccc(OP(=O)([O-])[O-])cc2)c2cc(C#N)n(C)c2)cc(-c2cc(Cl)ccc2C(=O)N2Cc3ccccc3C[C@H]2CN2CCOCC2)n1C.[Na+].[Na+] [Example 21, 4-[{[5-(5-Chloro-2-{[(3S)-3-(morpholin-4-ylmethyl)-3,4-dihydroisoquinolin-2(1H)-yl]carbonyl}phenyl)-1,2-dimethyl-1H-pyrrol-3-yl]carbonyl}(5-cyano-1-methyl-1H-pyrrol-3-yl)amino]phenyl disodium phosphate]
Activation factor +/− S.E.M. ([3]; Table 2, 25 mg/kg oral): 55.2 +/− 6.2 | Yield (experiment yield), the drug after incubation of the prodrug (human Caco-2 cells): Yield (%) = 100 | Fabs (predicted absorbed fraction in humans), the drug after incubation of the prodrug (human Caco-2 cells; A to B): Fabs (%) = 19 | Yield (experiment yield), compound measured: the prodrug itself (human Caco-2 cells): Yield (%) = 0.83

Cc1c(C(=O)N(c2ccc(OP(=O)([O-])[O-])cc2)c2cnn(C)c2)cc(-c2cc(Cl)ccc2C(=O)N2Cc3ccccc3C[C@H]2CN2CCOCC2)n1C.[Na+].[Na+] [Example 24, 4-[{[5-(5-Chloro-2-{[(3S)-3-(morpholin-4-ylmethyl)-3,4-dihydroisoquinolin-2(1H)-yl]carbonyl}phenyl)-1,2-dimethyl-1H-pyrrol-3-yl]carbonyl}(1-methyl-1H-pyrazol-4-yl)amino]phenyl disodium phosphate]
Activation factor +/− S.E.M. ([3]; Table 2, 25 mg/kg oral): 60.5 +/− 4.5
